Assay results reported in ChEMBL document CHEMBL1144966, “Both 5-arylidene-2-thioxodihydropyrimidine-4,6(1H,5H)-diones and 3-thioxo-2,3-dihydro-1H-imidazo[1,5-a]indol-1-ones are light-dependent tumor necrosis factor-alpha antagonists” (Bioorg Med Chem Lett, 2003).

These compounds were tested against T1, Tumor necrosis factor receptor superfamily member 1A (Homo sapiens, UniProt P19438) (assay: Inhibition of TNF-alpha binding to TNFRc1).
T1 sequence (P19438 whole entry): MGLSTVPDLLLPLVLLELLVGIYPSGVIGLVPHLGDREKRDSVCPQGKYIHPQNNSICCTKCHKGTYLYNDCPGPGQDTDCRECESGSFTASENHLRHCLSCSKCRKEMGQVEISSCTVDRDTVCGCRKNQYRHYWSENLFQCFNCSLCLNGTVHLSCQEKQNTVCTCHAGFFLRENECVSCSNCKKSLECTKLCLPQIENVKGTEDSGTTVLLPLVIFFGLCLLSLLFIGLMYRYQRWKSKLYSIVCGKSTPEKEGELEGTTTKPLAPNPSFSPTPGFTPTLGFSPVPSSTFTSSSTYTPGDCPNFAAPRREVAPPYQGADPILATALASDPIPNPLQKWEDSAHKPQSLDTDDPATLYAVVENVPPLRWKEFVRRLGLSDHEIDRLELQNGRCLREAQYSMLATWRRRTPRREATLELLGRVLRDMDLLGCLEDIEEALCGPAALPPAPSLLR

| Structure (SMILES) | IC50 [µM] |
| --- | --- |
| CCN1C(=O)c2cc3c(OC)cc(OCC(=O)OC(C)(C)C)cc3n2C1=S | 0.39 |
| C=CCN1C(=O)c2cc3ccc(OC)cc3n2C1=S | 1.7 |
| CCN1C(=O)C(=Cc2ccc(Br)s2)C(=O)N(CC)C1=S | 4.5 |
| O=C1C(=Cc2ccc(-c3ccccc3C(F)(F)F)o2)C(=O)N(c2ccccc2)C(=S)N1c1ccccc1 | 11 |
| CCN1C(=O)c2cc3c(OC)cc(OC)cc3n2C1=S | 1 |
| CCN1C(=O)C(=Cc2c[nH]c3ccccc23)C(=O)N(CC)C1=S | 1 |
| CCN1C(=O)c2cc3c(OC)cc(OCc4ccccn4)cc3n2C1=S | 0.31 |
| C=CCN1C(=O)c2c(C)c3c(OC)cc(OC)cc3n2C1=S | 1.1 |
| COC(=O)c1sccc1-c1ccc(C=C2C(=O)N(c3ccccc3)C(=S)N(c3ccccc3)C2=O)o1 | 40 |
| C=CCN1C(=O)c2cc3c(OC)cc(OC)cc3n2C1=S | 0.28 |
| COc1cc(OC)c2cc3n(c2c1)C(=S)N(CCc1ccccc1)C3=O | 1.9 |
| C=CCN1C(=O)c2cc3c(OC)c(OC)c(OC)cc3n2C1=S | 0.78 |
| CCN1C(=O)c2cc3c(OC)cc(OCOC)cc3n2C1=S | 0.28 |
| Cc1ccccc1N1C(=O)C(=Cc2c[nH]c3ccccc23)C(=O)N(c2ccccc2C)C1=S | 0.79 |
| CCN1C(=O)C(=Cc2cn(C)c3ccccc23)C(=O)N(CC)C1=S | 0.13 |
| CCN1C(=O)C(=Cc2ccc(C)s2)C(=O)N(CC)C1=S | 3.4 |
| CCN1C(=O)C(=Cc2cc3ccccc3[nH]2)C(=O)N(CC)C1=S | 10.2 |

| Structure (SMILES) | IC50 [µM] |
| --- | --- |
| CN1C(=O)C(=Cc2c[nH]c3ccccc23)C(=O)N(C)C1=S | 13 |
| CCN1C(=O)C(=Cc2c[nH]c3c(C)cccc23)C(=O)N(CC)C1=S | 0.6 |
| C=CCN1C(=S)c2c(C)c3c(OC)cc(OC)cc3n2C1=S | 0.21 |
| C=CCN1C(=O)n2c(cc3c(OC)cc(OC)cc32)C1=S | 0.61 |
| CCN1C(=O)C(=Cc2sccc2C)C(=O)N(CC)C1=S | 14.1 |
| CCN1C(=O)C(=Cc2ccc(-c3ccccc3C(F)(F)F)o2)C(=O)N(CC)C1=S | 2 |
| C=CCN1C(=O)c2cc3c(OC)cccc3n2C1=S | 2.1 |
| CCN1C(=O)/C(=C/c2ccc(-c3ccccc3C(F)(F)F)o2)SC1=S | 0.32 |
| Cc1ccccc1N1C(=O)/C(=C/c2c[nH]c3ccccc23)C(=O)NC1=S | 1.8 |
| CCN1C(=O)C(=Cc2c[nH]c3ccc([N+](=O)[O-])cc23)C(=O)N(CC)C1=S | 5.5 |
| CCN1C(=O)C(=Cc2ccc(-c3ccsc3C(=O)OC)o2)C(=O)N(CC)C1=S | 2.8 |
| COc1cc(OC)c2cc3n(c2c1)C(=S)N(CCCN1CCOCC1)C3=O | 0.67 |
| CCN1C(=O)C(=Cc2c[nH]c3ccc(OCc4ccccc4)cc23)C(=O)N(CC)C1=S | 0.4 |
| CCN1C(=O)/C(=C/c2ccc(-c3ccsc3C(=O)OC)o2)SC1=S | 0.3 |
| C=CCN1C(=O)n2c(c(C)c3c(OC)cc(OC)cc32)C1=S | 0.21 |
| CCN1C(=O)/C(=C/c2ccc(-c3cc(C(F)(F)F)nn3C)s2)SC1=S | 0.14 |

These compounds were tested against T2, Tumor necrosis factor receptor superfamily member 1A (Homo sapiens) (UniProt P19438) (assay: Compound was tested for inhibition of TNF-alpha binding to TNFRc1 at a concentration of 10 uM).
T2 sequence (whole entry): T1 sequence (P19438 whole entry)

| Structure (SMILES) | inhibition [%] |
| --- | --- |
| CCN1C(=O)C(=Cc2cc([N+](=O)[O-])cs2)C(=O)N(CC)C1=S | 0 |
| CCN1C(=O)C(=Cc2cc(Br)cs2)C(=O)N(CC)C1=S | 2 |
| CCN1C(=O)/C(=C/c2c[nH]c3ccccc23)SC1=S | 40 |
| CCN1C(=O)C(=Cc2ccccn2)C(=O)N(CC)C1=S | 0 |
| CCN1C(=O)C(=Cc2ccc3ccccc3n2)C(=O)N(CC)C1=S | 0 |
| COc1cc(OC)c2c(C)c3n(c2c1)C(=O)CN(Cc1ccccc1)C3=O | 0 |
| C=CCN1C(=O)c2cc3cc(OCc4ccccc4)ccc3n2C1=S | 46 |
| O=C1C(=Cc2c[nH]c3ccccc23)C(=O)N(c2ccccc2)C(=S)N1c1ccccc1 | 9 |
| CCN1C(=O)C(=Cc2cnc3ccccc3c2)C(=O)N(CC)C1=S | 0 |
| CCN1C(=O)C(=Cc2cn(C(C)=O)c3ccccc23)C(=O)N(CC)C1=S | 15 |
| C=CCN1C(=O)c2c(C)c3c(OC)cc(OC)cc3n2/C1=N/C#N | 19 |
| C=CCN1C(=O)c2cc3cc(Cl)ccc3n2C1=S | 17 |
| CCN1C(=O)C(=Cc2ccc(-c3cc(C(F)(F)F)nn3C)s2)C(=O)N(CC)C1=S | 33 |
| C=CCN1C(=O)c2cc3cc(OC)c(OC)cc3n2C1=S | 53 |
| CCN1C(=O)C(=Cc2cccnc2)C(=O)N(CC)C1=S | 0 |
| C=CCN1C(=O)c2c(C)c3c(OC)cc(OC)cc3n2C1=O | 0 |
| CCN1C(=O)C2Cc3c(OC)cc(OC)cc3N2C1=S (centres undefined) | 0 |
| C=CCN1C(=O)c2cc3c(OC)cc(OC)cc3n2C1=O | 0 |
| CCN1C(=O)c2cc3c(OC)cc(OCC(=O)O)cc3n2C1=S | 42 |
| CCN1C(=O)C(=Cc2ccncc2)C(=O)N(CC)C1=S | 0 |
| CCN1C(=O)c2cc3ccccc3n2C1=S | 27 |
